The values below come from patent EP0511003B1, “Superactive GRF analogs” (ELI LILLY AND COMPANY, priority 1991, dated 1992).

One experiment deals with barrows. The experiment can be described thus: In vivo effects in barrows injected subcutaneously or intravenously 3 times daily (urinary urea nitrogen excretion and serum parameters). Conditions: for GH: serum Growth Hormone level; for GH / TRIG. / BUN / FFA / GLUCOSE / INSULIN: 12th day of treatment; for GH / TRIG. / BUN / FFA / GLUCOSE / INSULIN / UREA: means; for TRIG.: serum triglycerides; for BUN / FFA / GLUCOSE / INSULIN: serum; for UREA: urinary urea nitrogen excretion, injected 3 times daily. How it is done:
A carrier solution was prepared by dissolving 1.38 g of Na2HP04 and 1.0g PSA with pyrogen free H2O to a final volume of 1 litre, pH approximately 5.1. 27.4 mg The p-methyl hippuroyl pGRF (2-76)OH prepared in substantial accordance with the teaching of Example 4.B. above was added to 64 ml of the carrier solution to achieve a final concentration of […].
Twenty crossbred barrows, averaging approximately 72 kg, with an indwelling catheter which had been surgically inserted into the femoral vein, were used to determine the effects of p-methyl hippuroyl pGRF (2-76)OH. A formulation of the p-methyl hippuroyl pGRF (2-76)OH was prepared in substantial accordance with the teaching of Example 11 above and injected 3 times daily at a rate of 10.0 µg/kg/inj., either intravenously (I.V.) or subcutaneously (S.Q.). The barrows were fed 2000 g of an 18.5% crude protein corn-soy diet per day, equally divided between 2 feedings at 8:00 a.m. and 4:00 p.m. The barrows were injected at 8:00 a.m., 4:00 p.m., and 12:00 p.m. Urinary urea nitrogen excretion data were collected during 1 5day control period, 4 3-day treatment periods, and 2 3-day periods after treatments were stopped. Thirty blood serum samples were collected during a 24-hour period on the 12th day of treatment. The serum samples were assayed for GH, BUN, glucose, insulin, FFA, and triglycerides.

Experiment [1] addresses T1, rat primary pituitary cells (Rattus norvegicus, UniProt Q02644).
T1 sequence (Q02644 23-464): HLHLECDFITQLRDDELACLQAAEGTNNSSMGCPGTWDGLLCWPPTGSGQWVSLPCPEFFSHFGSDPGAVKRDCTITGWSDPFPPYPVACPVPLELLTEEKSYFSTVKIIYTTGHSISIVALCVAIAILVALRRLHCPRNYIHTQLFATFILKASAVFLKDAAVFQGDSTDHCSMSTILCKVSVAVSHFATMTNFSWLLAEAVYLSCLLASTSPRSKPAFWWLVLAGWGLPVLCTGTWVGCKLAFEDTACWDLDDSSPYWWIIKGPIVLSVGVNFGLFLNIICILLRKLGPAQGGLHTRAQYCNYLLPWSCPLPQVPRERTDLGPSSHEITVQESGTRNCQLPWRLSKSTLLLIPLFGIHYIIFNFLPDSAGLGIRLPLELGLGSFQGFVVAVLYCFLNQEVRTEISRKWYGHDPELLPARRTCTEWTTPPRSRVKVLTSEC
Kind of experiment: Growth hormone release in vitro from rat primary pituitary cells. The note with it: growth hormone released into media after exposure to 7 doses of secretagogue for 3h. It is filed as cell-based. How it is done: The polypeptide compounds of the invention may be assayed in numerous systems. One in vivo assay is carried out in sodium pentobarbital-anesthetized rats. Wehrenberg et al., Biochem. Biophys. Res. Commun. 109:382 (1982). Growth hormone release is measured in vitro with rat anterior pituitary cells. Heiman et al., Endocrinol. 116:410 (1985).

The mark [2] stands for this setting: injected 3 times daily at a rate of 30.0 µg/kg/d, versus control barrows.
The mark [3] stands for this setting: Table 1, bGRF analogs, EC50 is the calculated median effective dose.

Marks after values point to notes of the source that are not given here.

What is called EC50 is the concentration at which the effect is half-maximal. p-Methyl Hippuroyl pGRF(2-76)OH: in the experiment on barrows (setting [2]), the “increase in serum GH levels” value was 4 fold, the “reduction in serum BUN levels” value was 54% and the “reduction in urinary urea nitrogen excretion” value was determined as 41%. Besides, in the experiment with barrows (IV 30 µg/kg/d), the GH is reported as 9.9^b ng/ml, the TRIG. is 35.3^b mg/dla, the BUN is recorded as 7.0^b mg/dl and the FFA was 97.3^b µM/la. Further, in the experiment on barrows (IV 30 µg/kg/d), the GLUCOSE is recorded as 132.7^b mg/dl, the INSULIN is on record as 76.8^b µu/ml and the UREA is 16.3^b g/day. Further, in the experiment with barrows (SQ 30 µg/kg/d), the GH is listed as 8.9^b ng/ml, the TRIG. is reported as 32.5^ab mg/dla, the BUN is 7.5^b mg/dl and the FFA is on record as 97.5^b µM/la. Besides, in the experiment on barrows (SQ 30 µg/kg/d), the GLUCOSE is recorded as 147.3^b mg/dl, the INSULIN is given as 112.9^C µu/ml and the UREA is reported as 16.4^b g/day. Moreover, the “depression in urinary urea nitrogen excretion prolonged after treatments were stopped” value in the experiment on barrows (subcutaneously injected barrows) was in the range of 2 to 3 days. The EC50 in experiment [1] (Table 2, pGRF(2-76)OH analogs) was determined as 0.06 nM. For the same substance, in experiment [1] (Table 3, p-Methyl Hippuroyl-1 pGRF analogs of different length), the half-maximal effective concentration (EC50) is 0.06 nM.

Consider p-Chloro Hippuroyl bGRF(2-77)OH, for which the EC50 in experiment [1] (setting [3]) was 0.19 nM.

In the case of n-Phenylmalonamindoyl bGRF(2-77)0H, the EC50 in experiment [1] (setting [3]) is 0.19 nM.

As to “p-Methyl Phenylmalonamindoyl pGRF(2-76)OH”, in experiment [1] (Table 2, pGRF(2-76)OH analogs), the EC50 amounted to 0.06 nM.

Take p-Hydroxy Hippuroyl bGRF(2-77)0H: in experiment [1] (setting [3]), the EC50 is 0.33 nM.

Consider p-Nitro Hippuroyl bGRF (2-77)0H, for which, in experiment [1] (setting [3]), the EC50 is 0.51 nM.

As for Hippuroyl-1 pGRF(2-76)OH, the EC50 in experiment [1] (Table 2, pGRF(2-76)OH analogs) was determined as 0.28 nM.

As to “des Tyr-1 pGRF(2-76)0H [reference compound]”, the EC50 in experiment [1] (Table 2, pGRF(2-76)OH analogs) stood at 95 nM.

On to p-Fluoro Hippuroyl bGRF(2-77)0H, for which, in experiment [1] (setting [3]), the EC50 is 0.14 nM.

With bGRF (1-77)0H [reference compound], the EC50 in experiment [1] (setting [3]) was 0.59 nM.

On to Hippuroyl-1 bGRF(2-77)0H, for which the half-maximal effective concentration (EC50) in experiment [1] (setting [3]) is 0.86 nM.

Turning to p-Methyl Hippuroyl bGRF(2-77)OH, the EC50 in experiment [1] (setting [3]) is 0.05 nM.
